Assay results from patent US9796672B2, “Isoindoline compositions and methods for treating neurodegenerative disease” (Cognition Therapeutics, Inc., priority 2014, dated 2017).

Assays:
potassium channel hERG = potassium channel hERG (Homo sapiens (Human), UniProt Q12809); assay: In vitro toxicity, hERG inhibition; format: biochemical
Experimental: In vitro toxicity for Test Compounds is tested in a number of standard assays.

neuronal cultures = assay: Functional neuronal phenotype in neuronal cultures; format: cell-based; design: key: Antagonist: antagonists (block Abeta signaling); Agonist: agonists (block Abeta signaling with U-shaped dose-response curve and toxicity at high doses); Inactive: inactive (no effect in neuronal cultures)
Experimental: Neuronal cultures are treated with various concentrations of sigma compounds for 24 hours and nuclear intensity compared to vehicle is measured.

Sigma-2 receptor = Sigma-2 receptor competitive radioligand binding assay; design: species or system rat; settings: read-out: Sigma-2 Receptor Affinity, Ki
Experimental: Radioligand binding assays for Sigma-1 receptors and Sigma-2 receptors were carried out by a commercial contract research organization. For Sigma-1 binding, various concentrations of test compounds from 100 μM to 1 nM were used to displace 8 nM [^3H](+)pentazocine from endogenous receptors on Jurkat cell membranes (Ganapathy M E et al. 1991, J Pharmacol. Exp. Ther. 289:251-260). 10 μM Haloperidol was used to define non-specific binding. For Sigma-2 receptors various concentrations of test compounds from 100 μM to 1 nM were used to displace 5 nM [^3H] […] (Bowen W D, et al. 1993, Mol. Neuropharmcol 3:117-126). 10 μM Haloperidol was used to define non-specific binding. Reactions were terminated by rapid filtration through Whatman GF/C filters using a Brandel 12R cell harvester followed by two washes with ice-cold buffer. Radioactivity on the dried filter discs was measured using a liquid scintillation analyzer (Tri-Carb 2900TR; PerkinElmer Life and Analytical Sciences). The displacement curves were plotted and the Ki values of the test ligands for the receptor subtypes were determined using GraphPad Prism (GraphPad Software Inc., San Diego, Calif.). The percentage specific binding was determined by dividing the difference between total bound (disintegrations per minute) and nonspecific bound (disintegrations per minute) by the total bound (disintegrations per minute).
The affinity of candidate sigma-2 ligand compounds at sigma-1 and sigma-2 receptors was also determined by displacement of different known labeled sigma-2 or sigma-1 ligands. Filtration assays were conducted according the previously published procedure (Xu, et al., 2005). Test compounds were dissolved in N,N-Dimethylformamide (DMF), dimethyl sulfoxide (DMSO) or ethanol and then diluted in 50 mM Tris-HCl pH 7.4 buffer containing 150 mM NaCl and 100 mM EDTA. Membrane homogenates were made from guinea pig brain for sigma-1 binding assay and rat liver for sigma-2 binding assay. Membrane homogenates were diluted with 50 mM Tris-HCl buffer, pH 8.0 and incubated at 25° C. in a total volume of 150 uL in 96 well plates with the radioligand and test compounds with concentrations ranging from 0.1 nM to 10 uM. After incubation was completed, the reactions were terminated by the addition of 150 uL of ice-cold wash buffer (10 mM Tris HCl, 150 mM NaCl, pH 7.4) using a 96 channel transfer pipette (Fisher Scientific, Pittsburgh, Pa.) and the samples harvested and filtered rapidly through 96 well fiber glass filter plate (Millipore, Billerica, Mass.) that had been presoaked with 100 uL of 50 mM Tris-HCl buffer. Each filter was washed four times with 200 uL of ice-cold wash buffer (10 mM Tris-HCl, 150 mM NaCl, pH 7.4). A Wallac 1450 MicroBeta liquid scintillation counter (Perkin Elmer, Boston, Mass.) was used to quantitate the bound radioactivity.
Nonspecific binding was determined from samples that contained 10 uM of cold haloperidol.
The binding affinity, Ki values was calculated using the method of Cheng and Prusoff.

[1] = Mouse liver microsome (MLM) stability; format: in vitro ADME; settings: mouse, microsomes
Experimental: A first pharmacokinetic study was performed in microsomes of mice mouse liver microsomes, MLM) by a commercial contract research organization. The studies were performed according to Obach, R. S et al. (1997) J. Pharmacol. Exp. Ther., 283: 46-58, which is incorporated herein by reference.

[2] = tested on: Abeta oligomer-induced membrane trafficking deficits in primary hippocampal neurons; assay: Membrane trafficking/exocytosis (MTT) assay; settings: read-out: Membrane Trafficking EC50; compound dosed prior to Abeta oligomer addition
Experimental: Primary hippocampal neurons from E18 Sprague-Dawley rat embryos were plated at optimized concentrations in 384 well plates in NB media (Invitrogen). Neurons were maintained in cultures for 3 weeks, with twice weekly feeding of NB media with N2 supplement (Invitrogen).
MTT reagent (3-(4,5-dimethylthizaol-2yl)-2,5diphenyl tetrazolium bromide) (Roche Molecular Biochemicals) was reconstituted in phosphate buffered saline to 5 mg/mL. 10 μL of MTT labeling reagent is added to each well and incubated at 37° C. for 1 h, then imaged. Exocytosis was assessed by automated microscopy and image processing to quantify the amount of endocytosed and exocytosed formazan.
Each assay plate was formatted so that compounds are tested with and without Abeta oligomer on each plate. […] Reduced formazan was first visible in intracellular vesicles. […] The dye precipitated in the aqueous environment of the culture and formed needle-shaped crystals on the surface of the neuron.

Sigma-1 receptor = Sigma-1 receptor competitive radioligand binding assay; settings: read-out: Sigma-1 Receptor Affinity, Ki
Experimental: Radioligand binding assays for Sigma-1 receptors and Sigma-2 receptors were carried out by a commercial contract research organization. For Sigma-1 binding, various concentrations of test compounds from 100 μM to 1 nM were used to displace 8 nM [^3H](+)pentazocine from endogenous receptors on Jurkat cell membranes (Ganapathy M E et al. 1991, J Pharmacol. Exp. Ther. 289:251-260). 10 μM Haloperidol was used to define non-specific binding. […] 10 μM Haloperidol was used to define non-specific binding. Reactions were terminated by rapid filtration through Whatman GF/C filters using a Brandel 12R cell harvester followed by two washes with ice-cold buffer. Radioactivity on the dried filter discs was measured using a liquid scintillation analyzer (Tri-Carb 2900TR; PerkinElmer Life and Analytical Sciences). The displacement curves were plotted and the Ki values of the test ligands for the receptor subtypes were determined using GraphPad Prism (GraphPad Software Inc., San Diego, Calif.). The percentage specific binding was determined by dividing the difference between total bound (disintegrations per minute) and nonspecific bound (disintegrations per minute) by the total bound (disintegrations per minute).

Chain of potassium channel hERG (Q12809 whole entry): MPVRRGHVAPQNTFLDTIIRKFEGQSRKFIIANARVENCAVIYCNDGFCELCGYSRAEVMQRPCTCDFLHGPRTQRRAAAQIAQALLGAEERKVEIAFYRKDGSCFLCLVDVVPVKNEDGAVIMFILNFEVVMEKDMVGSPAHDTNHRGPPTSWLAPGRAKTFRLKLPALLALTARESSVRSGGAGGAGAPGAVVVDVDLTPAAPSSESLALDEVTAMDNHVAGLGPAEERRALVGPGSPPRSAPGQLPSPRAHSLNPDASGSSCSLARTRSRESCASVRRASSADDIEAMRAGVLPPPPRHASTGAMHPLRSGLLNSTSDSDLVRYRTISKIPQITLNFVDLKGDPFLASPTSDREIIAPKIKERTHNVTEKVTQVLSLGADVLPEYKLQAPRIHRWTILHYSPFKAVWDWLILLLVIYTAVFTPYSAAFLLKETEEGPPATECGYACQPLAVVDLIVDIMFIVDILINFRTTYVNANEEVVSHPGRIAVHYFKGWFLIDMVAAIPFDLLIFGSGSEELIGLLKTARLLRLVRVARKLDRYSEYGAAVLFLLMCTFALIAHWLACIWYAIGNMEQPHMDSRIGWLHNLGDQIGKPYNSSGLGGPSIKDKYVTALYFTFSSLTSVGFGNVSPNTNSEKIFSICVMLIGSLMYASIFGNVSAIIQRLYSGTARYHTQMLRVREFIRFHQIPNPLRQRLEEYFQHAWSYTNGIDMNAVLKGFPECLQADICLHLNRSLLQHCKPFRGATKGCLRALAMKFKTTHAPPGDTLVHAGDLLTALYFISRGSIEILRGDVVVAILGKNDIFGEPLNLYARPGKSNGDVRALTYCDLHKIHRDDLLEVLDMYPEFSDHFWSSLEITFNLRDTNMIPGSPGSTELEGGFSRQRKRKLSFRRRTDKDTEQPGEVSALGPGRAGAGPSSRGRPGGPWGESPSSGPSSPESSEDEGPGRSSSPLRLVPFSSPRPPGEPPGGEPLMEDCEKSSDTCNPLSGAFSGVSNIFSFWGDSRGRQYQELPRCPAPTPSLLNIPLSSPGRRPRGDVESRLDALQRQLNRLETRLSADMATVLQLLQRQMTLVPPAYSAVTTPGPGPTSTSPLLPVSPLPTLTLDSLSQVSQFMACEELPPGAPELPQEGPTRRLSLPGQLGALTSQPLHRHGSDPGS

Compound	IC50 (potassium channel hERG) [nM]	neuronal phenotype (neuronal cultures)	Ki (Sigma-2 receptor) [nM]	Mouse liver microsomes, MLM t½ [1] [min]	EC50 [2] [nM]	Ki (Sigma-1 receptor) [nM]
COc1cc2c(cc1OC)CN(C(C)(C)CCc1ccc(OCCO)c(OC)c1)C2 [compound 48]	1700	Inactive	22	582	> 20000	3600
CC(C)Oc1ccc(CCC(C)(C)N2Cc3ccc(F)cc3C2)cc1OC(C)C [compound 42]	800	Agonist	6.2	14	> 20000	100
CC(C)Oc1cc(CC[C@@H](C)N2Cc3cc4c(cc3C2)OCO4)ccc1O [compound 25]	3200	Inactive/	110	4	> 20000	5.7
COc1cc(CCC(C)(C)N2Cc3cccc(C(=O)N4CCN(C(C)=O)CC4)c3C2)ccc1O [compound 83]	10000	Inactive	10000	336	100000	10000
CC(C)(CCc1ccc(F)cc1)N1Cc2ccc(F)cc2C1 [compound 35]	130	Antagonist	3.6	9	2200	2.1
C[C@H](CCc1ccc(F)cc1)N1Cc2cccc(F)c2C1 [compound 21]	15000	Inactive	12	7	> 20000	330
CC(C)(C)Oc1cc(CCC(C)(C)N2Cc3cccc(C(=O)O)c3C2)ccc1O [compound 75]	100000	Inactive	> 10000	508	> 20000	10000
COc1cc(CCC(C)(C)N2Cc3cccc(C(=O)NCCO)c3C2)ccc1O [compound 79]	11000	Inactive	460	144	100000	10000
CC(C)Oc1cc(CCC(C)(C)N2Cc3cc4c(cc3C2)OCO4)ccc1O [compound 29]	540	Inactive/	13	6	> 20000	47
CC(C)(CCc1ccc(O)c(OC(F)(F)F)c1)N1Cc2cccc(F)c2C1 [compound 54]	2500	Antagonist	18	12	6500	74
COc1cc(CC[C@@H](C)N2Cc3ccc(F)cc3C2)ccc1OCCO [compound 30]	4700	Antagonist	910	126	300	220
C[C@H](CCc1ccc(Cl)c(Cl)c1)N1Cc2cccc(F)c2C1 [compound 9]	6700	Antagonist	3.6	12	220	17
CC(C)Oc1cc(CC[C@@H](C)N2Cc3cccc(F)c3C2)ccc1O [compound 26]	3700	Inactive	41	4	> 20000	7.9
CC(C)(CCc1ccc(F)cc1)N1Cc2cc3c(cc2C1)OCO3 [compound 36]	19	Antagonist	5.2	47	860	4.1
CC(C)(CCc1ccc(O)c(OC(F)(F)F)c1)N1Cc2ccc(S(C)(=O)=O)cc2C1 [compound 61]	790	Antagonist	6.9	114	< 20	33
CC(C)COc1cc(CCC(C)(C)N2Cc3cccc(F)c3C2)ccc1O [compound 88]	2800	Neuroactive	1.3	28	360	96
COc1cc(CCC(C)(C)N2Cc3cccc(F)c3C2)ccc1O [compound 53]	2800	Inactive	17	21	> 20000	110
COc1cc(CCC(C)(C)N2Cc3cccc(C(=O)NCCN(C)C)c3C2)ccc1O [compound 78]	110000	Neuroactive	10000	450	8800	10000
CC(C)(C)Oc1cc(CCC(C)(C)N2Cc3ccc(S(C)(=O)=O)cc3C2)ccc1O [compound 62]	26000	Antagonist	8.5	45	60	63
C[C@H](CCc1ccc(O)c(OC(F)(F)F)c1)N1Cc2cc3c(cc2C1)OCO3 [compound 24]	860	Antagonist	52	5	500	4.9
CC(C)(CCc1ccc(O)c(OC(F)(F)F)c1)N1Cc2cccc(C(=O)O)c2C1 [compound 56]	49000	Weak and Antagonist	10000	617	300	10000
C[C@H](CCc1ccc(F)cc1)N1Cc2cc3c(cc2C1)OCO3 [compound 23]	370	Antagonist	13	5	< 250	16
COc1cc2c(cc1OC)CN([C@H](C)CCc1ccc(Cl)c(Cl)c1)C2 [compound 11]	290	Antagonist	0.44	61	700	14
COc1cc(CC[C@@H](C)N2Cc3cc4c(cc3C2)OCO4)ccc1OCCO [compound 52]	3200	Antagonist	540	97	300	130
COc1cc(CCC(C)(C)N2Cc3ccc(F)cc3C2)ccc1OCCO [compound 45]	220	Inactive	190	96	> 20000	2800
CC(C)Oc1cc(CCC(C)(C)N2Cc3cccc(F)c3C2)ccc1O [compound 28]	9600	Antagonist	11	4	70 to 80	120
CC(C)(C)Oc1cc(CCC(C)(C)N2Cc3c(F)ccc(F)c3C2)ccc1O [compound 74]	100000	Antagonist	550	21	300	2300
